# Results: paper PMC4992173, “Divergent synthesis and identification of the cellular targets of deoxyelephantopins” (Nature Communications, 2016)
# Biological target: human PPARγ
# Test: Gel-based PPARγ binding kinetics (Kitz and Wilson)
# Settings: recombinant PPARγ, 10-60 min preincubation, 24c-Cy3 readout, n=3
# Description: Briefly, recombinant human PPARγ was pretreated with compounds at 20 μM concentration followed by the probe 24c-Cy3. […] Assuming covalent bond formation with PPARγ, we applied the method of Kitz and Wilson[52] to determine the kinetic values Ki and kinact for deoxyelephantopin and compound 19a (Supplementary Fig. 17). We observed clear time-dependent shift in half-maximal inhibitory concentration (IC50) values characteristic for an irreversible mode of binding.
# Supplementary figure 17: Determination of the kinetic values Ki and kinact for 19a and DEP as binders to human PPARγ (n = 3).
# Supplementary figure 18: F γ
# 24c-Cy3 after pretreatment with 10 mM IAA or DMSO. […]
# for 30 min. at 37 °C under 5% CO2 atmosphere. Cells were washed one time with PBS and fixed with 4% paraformaldehyde for 20 min. at r.t. Coverslips were washed three times with PBS, one time with water and then mounted on a slide with ProLong Gold antifade mountant with DAPI (Life Technologies). Cells were visualized with an LSM 700 confocal microscope […]
# Annexin V and PI staining for cell microscopy. […]
# In situ labeling experiments. […] Gels were visualized at 625 nm using a Hitachi FMBIO II Multi-View fluorescence scanner, then […]
# visualization were performed as described above. Images were quantified with ImageJ and kinetics values were calculated using GraphPad Prism (V6.03). […]
row,SMILES,kinact/Ki
1,C=C(C)C(=O)O[C@H]1CC2=C[C@H](C/C=C\[C@H]3OC(=O)C(=C)[C@H]13)OC2=O [19a],"1,241 M^−1 min^−1"
2,C=C(C)C(=O)O[C@H]1CC2=C[C@@H](C/C(C)=C/[C@H]3OC(=O)C(=C)[C@H]13)OC2=O [deoxyelephantopin],680 M⁻¹ min⁻¹
